As a reminder, the EC50 is the concentration needed to bring the measured effect to its halfway point.

The values below come from US20250276996A1, “CATIONICALLY-ENFRAMED HIGH DENSITY AROMATIC PEPTIDES” (Research Foundation of the City University of New York, priority 2022, published 2025).

Structures are written as SMILES. Several values for one entry are separate records, joined by “and”; a condition that tells them apart may be missing. Identical values can stand only once. Entries after “also recorded” stand apart in the source; their conditions may differ. Non-standard residues stand in square brackets, D forms with d. Residues, ends and D or L forms follow the SMILES beside them. *: point of attachment. Biotin = O=C1N[C@H]2[C@H](CS[C@H]2CCCCC(=O)*)N1

One data set relates to mice. The following applies: 3 mg/kg daily for 14 days or biweekly for two months.
Data set [1] has as its system retinal ganglion cells and optic nerve. The data set can be described thus: Optic nerve protection with elevated intraocular pressure. The format is in vivo, DBA/2J mice. As to the method: A series of experiments were conducted to determine if biotin-HDAP2 preserves mitochondrial ultrastructure in retinal ganglion cells (RGC) axons, whether biotin-HDAP2 preserves the integrity of axons in the optic nerve and/or whether biotin-HDAP2 treatment improves RGC survival. To these ends, 100 DBA/2J mice (8 and 12 weeks old) were obtained with the goal of studying them at 6 and 12 months of age. A small number of animals were examined at 6 months, but they had not yet developed elevated intraocular pressure (IOP), and no differences were observed between treatment conditions in optic nerve appearance or retinal ganglion cell distribution. Therefore, further analysis was delayed until animals reached 10 months, when elevated IOP was reliably present.
Optic nerves from all three experimental conditions (control, untreated and biotin-HDAP2-treated) have been embedded for ultrastructural analysis.
Nerves were obtained from 10-month-old animals who had high IOP for at least 3 consecutive months. Differences between control, untreated and biotin-HDAP2-treated groups were striking and correlated closely with cumulative intraocular pressure (cIOP) exposure.
All retinas in this study were stained with RBPMS, imaged using confocal microscopy, and RGCs were automatically counted using ImageJ. To assess the overall effect of biotin-HDAP2 treatment on RGC survival, RGC counts between biotin-HDAP2-treated and Untreated animals were compared across all available time points.

Data set [2] concerns MDBK cells. The data set can be described thus: Uptake and intracellular localization of biotin-HDAP2 (streptavidin staining). The following applies: for cellular uptake and intracellular localization: 37° C., up to 1 h. The format is cell-based, bovine. As to the method:
Biotin-HDAP2 was studied using Madin-Darby Bovine Kidney Epithelial cell line (MDBK). Monolayers of cells were grown on 6-well plates for 3 days. On day 4, cells were washed twice with pre-warmed DMEM, and then incubated with 0.2 ml of DMEM containing 10 μM biotin-HDAP2 at 37° C. for up to 1 h. Cells were then washed and fixed in 4% paraformaldehyde and biotin-HDAP2 was detected using Alexa FLUOR™ 488 streptavidin. Cells were also co-stained with MitoTracker-Red or DAPI to identify […] or nuclei, respectively. Cells were then visualized in a fluorescent microscope (Nikon Eclipse-ci-SRS).
Biotin-HDAP2 was studied using Madin-Darby Bovine Kidney Epithelial cell line (MDBK). Monolayers of cells were grown on 6-well plates for 3 days. On day 4, cells were washed twice with pre-warmed DMEM, and then incubated with 0.2 ml of DMEM containing 10 μM biotin-HDAP2 at 37° C. for up to 1 h. Cells were then washed and fixed in 4% paraformaldehyde and biotin-HDAP2 was detected using Alexa FLUOR™ 488 streptavidin. Cells were also co-stained with MitoTracker-Red to identify mitochondria. Cells were then visualized using a fluorescent microscope (Nikon Eclipse-ci-SRS).
Biotin-HDAP2 uptake: To assess uptake of biotin-HDAP2 into cells, cultures were incubated in serum-free media for three days to deplete endogenous biotin (Birk et al., 2013) and then treated with biotin-HDAP2 (1 μM) for one hour. Cells were fixed with 4% paraformaldehyde and incubated for one hour with Alexa Fluor 594 conjugated streptavidin (1:100, Jackson ImmunoResearch) to localize the peptide within the cells, Hoechst 33342 (10 μg/ml, Novus) to label nuclei, and Mito Tracker Red CMXRos (MTR; 50 nM, Invitrogen) to identify mitochondria; MTR binds to thiol groups, which are heavily concentrated in the mitochondrial matrix. Cells were rinsed and imaged immediately in the dish using a Nikon Eclipse 50i fluorescent microscope with a 40× immersion objective (NA 0.8).
Intracellular Localization of biotin-HDAP2: Intracellular targeting of biotin-HDAP2 was determined by incubating MDBK cells (ATCC-CCL22) that were grown in biotin-free media for 72 hours, with 10 μM of N-biotinylated biotin-HDAP2 for 1 hour. Cells were then fixed with 4% paraformaldehyde, permeabilized with 0.1% Triton X-100, and treated with streptavidin conjugated with Alexa Fluor 488 (SA) for 30 minutes at room temperature. […]
SA fluorescence was normalized to Hoechst fluorescence to account for differences in cell number in each field. The intensity of SA fluorescence was measured in each field, using the “Analyze” feature in ImageJ to compute the mean pixel intensity (in arbitrary fluorescence units) from the images. […]

Data set [3] relates to retinal ganglion cells (RGCs). The data set can be described thus: Retinal ganglion cell survival in retinal explants. The following applies: Brn3a labeling. From the text: FIG. 8 illustrates retinal explants labeled with Brn3a (green) to label retinal ganglion cells (RGCs), ToPro3 to label all cell nuclei (red) and ChAT to label displaced amacrine cells (blue).
Data set [4] concerns MDBK cells. Description: Cell survival in serum-free media (AlamarBlue). The format is cell-based, bovine. As to the method:
Serum starvation experiments: Biotin-HDAP2's ability to improve cell viability and function following serum starvation was assessed. For all experiments, MDBK cells were seeded in 35 mm cell culture dishes (5×10^4 cells) in DMEM medium with 10% FBS (Fetal Bovine Serum) for 24 hrs and then incubated in serum-free medium with or without biotin-HDAP2 (1 μM) for 5 days to induce cell death. For quantitative measurements, wells were washed to remove dead cells, and then stained with AlamarBlue for 60 min. Quantitative analysis of dye conversion was measured using a fluorescent plate reader (550 ex/580 em) and cell viability was expressed as folds change (increase or decrease) over scrum-starved untreated cells.
Effects of peptides on cell survival in serum-free media: Cell survival in serum starvation conditions was studied in the presence and absence of biotin-HDAP2 using MDBK cells. Cells were plated at a density of 1-2×10^5 cells/well in 96 well plates in DMEM/10% FBS media. The following day, cells were washed and the medium replaced with DMEM serum-free media in the presence or absence of different concentrations of biotin-HDAP2 and incubated for 5 days. Cell viability was assessed using the Resaruzin (Alamar blue) indicator dye. Quantitative analysis of dye conversion was measured using a fluorescent plate reader (ex/em=550/580 nm) and viability was expressed as fold increase over of untreated cells.
(The colour change of resazurin is a common sign of viable cells or microbes.)

A further data set concerns HK-2 cells. Description: PCNA expression in serum-starved cells. The format is cell-based. The following applies: serum starved for 3 days. From the text:
FIG. 18B are representative images of HK-2 cells serum starved for 3 days in the presence or absence of biotin-HDAP2 (SEQ ID NO: 1), HDAP4 (SEQ ID NO: 13), and biotin-HDAP6 (SEQ ID NO: 10) and then tested for the expression of Proliferating Cell Nuclear Antigen (PCNA) (bottom row), a positive marker for cell proliferation. The Hoechst 33342 probe (Hc) was used to label the nucleus to determine cellular localization (top row).

Turning to `N=C(N)NCCC[C@@H](NC(=O)[C@H](Cc1ccccc1)NC(=O)[C@H](Cc1ccccc1)NC(=O)[C@@H](CCCNC(=N)N)NC(=O)CCCC[C@@H]1SC[C@@H]2NC(=O)N[C@@H]21)C(N)=O` [biotin-HDAP2, Biotin-dArg-Phe-Phe-dArg-NH2] (Biotin-[dR]FF[dR]-NH2), the toxicity in mice entry with mice is “no adverse effects”. Further, the “optic nerve axon morphology” value in data set [1] (10-month-old animals, high IOP at least 3 months) is “morphologically comparable to those of young controls”. In addition, the “RGC counts (mean)” value in data set [1] (all available time points, n=23) was 26,267±14,440. The “RGC counts compared with other groups” value in data set [1] (elevated cIOP) is recorded as “significantly higher RGC counts overall; also recorded: RGC counts similar to controls”. The “mitochondrial ultrastructure in RGC axons (TEM)” value in data set [1] (nerves exposed to high IOP) was “more numerous and exhibit preserved cristae and greater structural integrity”. The “cellular uptake and intracellular localization” value in the data set on MDBK cells [2] (10 μM) is on record as “targets mitochondria; also recorded: penetrates cell membranes”; with MDBK cells [2] (10 μM, listed as Biotin-HDAP2), “primarily localized to the cytoplasmic compartment; also recorded: taken into mitochondria; also recorded: co-localized with MitoTracker-Red”. The “speed of entry into the cell compared with biocytin” value with MDBK cells [2] (10 μM, 1 hour, serum-starved MDBK cells) is listed as “about 6 times”. The “level of biotin-HDAP2 in cells relative to endogenous biotin” value with MDBK cells [2] (MDBK cells, streptavidin AF 488) is over 10 ×. Moreover, the “survival of retinal ganglion cells in retinal explants” value in data set [3] is “promoted survival of retinal ganglion cells in retinal explants”. Besides, in the data set with MDBK cells [4] (1 μM, 5 days serum starvation), the “AlamarBlue fluorescence / protection during serum starvation” value was “increased AlamarBlue fluorescence”. Further, the “increase in cell survival compared to untreated controls” value in the data set on MDBK cells [4] (1 μM, serum-free 5 days, AlamarBlue) came to 50%. The EC50 with MDBK cells [4] (serum-free, 5 days, AlamarBlue, read-out: EC50, cell survival in serum-free conditions) was ~100 nM and 100 nM. For the same compound, the “expression of PCNA and cell proliferation” value with HK-2 cells was “increase proliferation expression of PCNA and cell proliferation during serum starvation”.
